Results published in the NIST ThermoML archive (doi:10.1021/je2007378).
± gives the expanded uncertainty stated by the source.

Assay: not given
Details: 298.15 K; 101.33 kPa; Liquid; Vibrating tube method

First: C[Si]1(C)O[Si](C)(C)O[Si](C)(C)O[Si](C)(C)O[Si](C)(C)O1 [decamethylcyclopentasiloxane]
Second: C[Si]1(C)O[Si](C)(C)O[Si](C)(C)O[Si](C)(C)O1 [octamethylcyclotetrasiloxane]
The molar volume of the first is higher: 0.0003889 ± 9.1e-07 m3/mol for the first, 0.0003121 ± 1e-07 m3/mol for the second.

Going from C[Si](C)(C)O[Si](C)(C)O[Si](C)(C)O[Si](C)(C)C [decamethyltetrasiloxane] to C[Si](C)(C)O[Si](C)(C)O[Si](C)(C)O[Si](C)(C)O[Si](C)(C)C [dodecamethylpentasiloxane], the molar volume rises from 0.0003662 ± 7.9e-07 m3/mol to 0.0004424 ± 9.7e-07 m3/mol.

Compared with CCCCCCC [heptane], C[Si](C)(C)O[Si](C)(C)C [hexamethyldisiloxane] is higher in molar volume: 0.0001474 ± 5e-08 m3/mol for the first, 0.000214 ± 6e-08 m3/mol for the second.

In the case of C[Si](C)(C)O[Si](C)(C)O[Si](C)(C)C [octamethyltrisiloxane], the molar volume is reported as 0.0002903 ± 3e-07 m3/mol.

Assay: excess molar enthalpy (molar enthalpy of mixing); xn = mol fraction of the nth substance listed
Details: 298.15 K; 101 kPa; Liquid; Calvet calorimetry; x1 = 0.5

C[Si](C)(C)O[Si](C)(C)O[Si](C)(C)O[Si](C)(C)C [decamethyltetrasiloxane] + CCCCCCC and C[Si](C)(C)O[Si](C)(C)O[Si](C)(C)O[Si](C)(C)O[Si](C)(C)C [dodecamethylpentasiloxane] + CCCCCCC are the same in excess molar enthalpy: 0.239 ± 0.239 kcal/mol for the first, 0.239 ± 0.239 kcal/mol for the second.

First: C[Si](C)(C)O[Si](C)(C)C [hexamethyldisiloxane] + CCCCCCC
Second: C[Si](C)(C)O[Si](C)(C)O[Si](C)(C)C [octamethyltrisiloxane] + CCCCCCC
The excess molar enthalpy of the first is higher: 1.2 ± 0.239 kcal/mol for the first, 0.239 ± 0.239 kcal/mol for the second.

Same assay, conditions: 298.15 K; 101 kPa; Liquid; Calvet calorimetry; x2 = 0.5

C[Si]1(C)O[Si](C)(C)O[Si](C)(C)O[Si](C)(C)O[Si](C)(C)O1 [decamethylcyclopentasiloxane] + CCCCCCC and C[Si]1(C)O[Si](C)(C)O[Si](C)(C)O[Si](C)(C)O1 [octamethylcyclotetrasiloxane] + CCCCCCC are the same in excess molar enthalpy: 0.239 ± 0.239 kcal/mol for the first, 0.239 ± 0.239 kcal/mol for the second.
